Experimental data from patent US12595248B2, “PRMT5 inhibitors” (Merck Sharp & Dohme LLC, priority 2019, dated 2026).
Like-named read-outs stand apart in the source and are kept apart here.

Legend:
[1] = target: T1, PRMT5-MEP50 enzyme complex (Homo sapiens, UniProt O14744); test: PRMT5-MEP50 Enzyme Methylation Assay (Version A); assay type: biochemical
T1 construct: Full-length (FL)-PRMT5-MEP50 enzyme complex (recombinant proteins from baculovirus-transfected Sf21 cells: FL-PRMT5; MW=73837 kDa and FL-MEP50; MW=38614); made in house; host or cells: baculovirus-transfected Sf21 cells
Protocol: PRMT5-MEP50 Enzyme Methylation Assay (Version A)
PRMT5-MEP50 biochemical assay is a direct measurement of the methylation activity of the enzyme complex on a short peptide substrate derived from the N-terminus of H4 histone. Methylation experiment was performed with recombinant PRMT5-MEP50 protein complex. The assessment of inhibitory effect of small molecules was measured by the effectiveness of the compounds to inhibit this reaction (EC50).
In this assay, the potency (EC50) of each compound was determined from a twenty-point (1:2 serial dilution; top compound concentration of 100000 nM) titration curve using the following outlined procedure. To each well of a white ProxiPlus 384 well-plate, 100 nL of compound (1% DMSO in final assay volume of 10 μL) was dispensed, followed by the addition of 8 μL of 1× assay buffer (50 mM Bicine pH 8.0, 1 mM DTT, 0.004% Tween20, 0.01% BSA) containing 1.25 nM of Full-length (FL)-PRMT5-MEP50 enzyme complex (recombinant proteins from baculovirus-transfected Sf21 cells: FL-PRMT5; MW=[…] and FL-MEP50; MW=38614) and 1 μL of 150 μM S-(5′-Adenosyl)-L-Methionine Chloride (SAM). A plate was sealed and placed in a 37° C. humidified chamber for a 60 minutes pre-incubation with compound. Subsequently, each reaction was initiated by the addition of 1 μL 1× assay buffer containing 750 nM biotinylated H4R3 (MeI) peptide. The final reaction in each well of 10 μL consists of 1.0 nM PRMT5-MEP50, 75 nM biotinylated-peptide, and 15 μM SAM. Methylation reactions were allowed to proceed for 150 minutes in a sealed plate at 37° C. Reactions were immediately quenched by the addition of 1 μL of 5% formic acid. A plate was then frozen and shipped to SAMDI™ Tech Inc. to determine the percent conversion from H4R3 (MeI) to H4R3 (Me2). Dose-response curves were generated by plotting percent effect (% product conversion; Y-axis) vs. Log 10 compound concentrations (X-axis). EC50 values were determined by non-linear regression according to models for either sigmoidal (4 parameters) or biphasic (7 parameters) dose-response curves.

[2] = target: T2, PRMT5 (Homo sapiens, UniProt O14744); test: PRMT5 Cell Target Engagement (TE) Assay; assay type: cell-based; conditions: MCF-7 cells, treated for 3 days, symmetric dimethylation of arginine (SDMA) by high content imaging
T2 construct: seeded with 4000 MCF-7 cells in 30 μl media; endogenous in cells; host or cells: MCF-7 cells
Method in brief: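 MCF-7 cells treated 3 days at 37 °C with a ten-point 1:3 titration from 10000 nM. Fixed cells immunostained with anti-SDMA and Alexa488 secondary; nuclear fluorescence quantified by high-content imaging versus DMSO wells, with IC50 from a 4-parameter fit.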

[3] = first of two EC50s: 7 parameters biphasic model, read-out: Enzyme Methylation Assay Version A (EC50_1)
[4] = second of two EC50s: 7 parameters biphasic model, read-out: Enzyme Methylation Assay Version A (EC50_2)
[5] = only one EC50 shown: 4 parameters single site sigmoidal model, 60 min pre-incubation with SAM, read-out: Enzyme Methylation Assay Version A (EC50)

T2 sequence (O14744 whole entry): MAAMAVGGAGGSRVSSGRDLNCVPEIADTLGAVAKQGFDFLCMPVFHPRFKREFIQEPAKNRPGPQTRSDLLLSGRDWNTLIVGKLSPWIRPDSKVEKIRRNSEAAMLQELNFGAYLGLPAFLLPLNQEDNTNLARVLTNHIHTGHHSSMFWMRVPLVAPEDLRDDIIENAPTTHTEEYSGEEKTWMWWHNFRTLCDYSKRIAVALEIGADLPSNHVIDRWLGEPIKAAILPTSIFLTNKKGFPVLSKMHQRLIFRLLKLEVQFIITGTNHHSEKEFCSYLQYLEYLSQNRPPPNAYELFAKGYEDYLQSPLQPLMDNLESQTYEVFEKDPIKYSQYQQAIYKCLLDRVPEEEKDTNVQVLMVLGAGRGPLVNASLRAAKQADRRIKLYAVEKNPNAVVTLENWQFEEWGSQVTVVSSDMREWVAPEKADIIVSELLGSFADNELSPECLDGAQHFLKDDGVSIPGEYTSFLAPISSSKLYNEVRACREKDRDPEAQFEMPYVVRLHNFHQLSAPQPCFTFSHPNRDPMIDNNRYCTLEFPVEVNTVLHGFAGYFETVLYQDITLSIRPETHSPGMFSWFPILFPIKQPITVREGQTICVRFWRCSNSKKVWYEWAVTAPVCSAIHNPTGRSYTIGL
T2 sequence (Q9BQA1 whole entry partner): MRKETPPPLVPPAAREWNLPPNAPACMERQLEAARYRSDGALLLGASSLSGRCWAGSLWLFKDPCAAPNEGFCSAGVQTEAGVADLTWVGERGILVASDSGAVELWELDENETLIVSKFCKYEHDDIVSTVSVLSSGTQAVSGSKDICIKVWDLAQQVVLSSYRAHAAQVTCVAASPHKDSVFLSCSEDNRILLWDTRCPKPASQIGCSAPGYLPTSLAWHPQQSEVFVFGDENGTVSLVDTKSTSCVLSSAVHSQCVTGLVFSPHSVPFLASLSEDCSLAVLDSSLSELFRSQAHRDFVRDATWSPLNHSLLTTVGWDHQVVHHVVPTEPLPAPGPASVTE
T1 sequence (O14744 whole entry): as the sequence (O14744 whole entry) above
T1 sequence (Q9BQA1 whole entry partner): as the sequence (Q9BQA1 whole entry partner) above

## O=C(c1cn2cc(Cl)cc(Cl)c2n1)N1CC[C@H](N2CCc3ccccc3C2)[C@@H](O)C1 [Example 140, (6,8-dichloroimidazo[1,2-a]pyridin-2-yl)[(3S,4S)-4-(3,4-dihydroisoquinolin-2(1H)-yl)-3-hydroxypiperidin-1-yl]methanone]
[1]; [3]
  EC50: 0.8 nM
[1]; [4]
  EC50: 65 nM
[2]
  EC50: 28 nM

## O=C(c1cn2cc(Br)ccc2n1)N1CC[C@H](N2CCc3ccccc3C2)[C@@H](O)C1 (single isomer, unassigned) [Example 1]
[1]; [5]
  EC50: 1.1 nM
[2]
  EC50: 9.8 nM

## O=C(c1cn2cc(Br)cc(Br)c2n1)N1CC[C@H](N2CCc3ccccc3C2)[C@@H](O)C1 [Example 142, (6,8-dibromoimidazo[1,2-a]pyridin-2-yl)[(3S,4S)-4-(3,4-dihydroisoquinolin-2(1H)-yl)-3-hydroxypiperidin-1-yl]methanone]
[1]; [5]
  EC50: 1.1 nM
[2]
  EC50: 8.6 nM

## O=C(c1ccc2c(c1)NCCN(CC(F)(F)F)C2=O)N1CC[C@H](N2CCc3ccccc3C2)[C@@H](O)C1 [Example 102, 8-((3S,4S)-4-(3,4-dihydroisoquinolin-2(1H)-yl)-3-hydroxypiperidine-1-carbonyl)-4-(2,2,2-trifluoroethyl)-1,2,3,4-tetrahydro-5H-benzo[e][1,4]diazepin-5-one]
[1]; [3]
  EC50: 1.5 nM
[1]; [4]
  EC50: 905 nM
[2]
  EC50: 10 nM

## Cc1cnc2nc(C(=O)N3CC[C@H](N4CCc5ccccc5C4)[C@@H](O)C3)cn2c1 [Example 72, [(3S,4S)-4-(3,4-dihydroisoquinolin-2(1H)-yl)-3-hydroxypiperidin-1-yl](6-methylimidazo[1,2-a]pyrimidin-2-yl)methanone]
[1]; [3]
  EC50: 0.9 nM
[1]; [4]
  EC50: 248 nM
[2]
  EC50: 37 nM

## Cc1nc2nc(C(=O)N3CC[C@H](N4CCc5ccccc5C4)[C@@H](O)C3)cn2cc1Br [Example 67, (6-bromo-7-methylimidazo[1,2-a]pyrimidin-2-yl)((3S,4S)-4-(3,4-dihydroisoquinolin-2(1H)-yl)-3-hydroxypiperidin-1-yl)methanone]
[1]; [3]
  EC50: 0.6 nM
[1]; [4]
  EC50: 53 nM
[2]
  EC50: 49 nM

## O=C(c1cc(NC2CCN3C(=O)CCC3C2)ncc1F)N1CC[C@H](N2CCc3ccccc3C2)[C@@H](O)C1 (single isomer, unassigned) [Example 118]
[1]; [3]
  EC50: 2.9 nM
[1]; [4]
  EC50: 10600 nM
[2]
  EC50: 55 nM

## O=C1Nc2cc(C(=O)N3CC[C@H](N4CCc5ccccc5C4)[C@@H](O)C3)ccc2OC1C1CC1 (single isomer, unassigned) [Example 81]
[1]; [3]
  EC50: 1.6 nM
[1]; [4]
  EC50: 5010 nM
[2]
  EC50: 59 nM

## CC(C)N1CCNc2cc(C(=O)N3CC[C@H](N4CCc5ccccc5C4)[C@@H](O)C3)ccc2C1=O [Example 62, 8-((3S,4S)-4-(3,4-dihydroisoquinolin-2(1H)-yl)-3-hydroxypiperidine-1-carbonyl)-4-isopropyl-1,2,3,4-tetrahydro-5H-benzo[e][1,4]diazepin-5-one]
[1]; [5]
  EC50: 3.6 nM
[2]
  EC50: 21 nM

## O=C(c1cc(NC2CCN(C(=O)C3CC3)CC2)ncc1F)N1CC[C@H](N2CCc3ccccc3C2)[C@@H](O)C1 [Example 108, (2-((1-(cyclopropanecarbonyl)piperidin-4-yl)amino)-5-fluoropyridin-4-yl)((3S,4S)-4-(3,4-dihydroisoquinolin-2(1H)-yl)-3-hydroxypiperidin-1-yl)methanone]
[1]; [5]
  EC50: 1.3 nM
[2]
  EC50: 3.8 nM

## Cc1nc2ncc(C(=O)N3CC[C@H](N4CCc5ccccc5C4)[C@@H](O)C3)n2cc1Br [Example 75, (6-bromo-7-methylimidazo[1,2-a]pyrimidin-3-yl)[(3S,4S)-4-(3,4-dihydroisoquinolin-2(1H)-yl)-3-hydroxypiperidin-1-yl]methanone]
[1]; [3]
  EC50: 41 nM
[1]; [4]
  EC50: 1550 nM
[2]
  EC50: 647 nM

## CC(=O)N1CCC(Nc2cc(C(=O)N3CCC(N4CCc5ccccc5C4)C(O)C3(C)C)ccn2)CC1 (single isomer, unassigned) [Example 22, l-(4-((4-(4-(3,4-dihydroisoquinolin-2(1H)-yl)-3-hydroxy-2,2-dimethylpiperidine-1-carbonyl)pyridin-2-yl)amino)piperidin-1-yl)ethan-1-one]
[1]; [3]
  EC50: 159 nM
[1]; [4]
  EC50: 58900 nM
[2]
  EC50: > 10000 nM

## O=C(c1cc(NC2CCN3C(=O)CCC3C2)ncc1F)N1CC[C@H](N2CCc3ccccc3C2)[C@@H](O)C1 (single isomer, unassigned) [Example 116]
[1]; [5]
  EC50: 3.9 nM
[2]
  EC50: 6.6 nM

## O=C(c1cc(NC2CCN3C(=O)CCC3C2)ncc1F)N1CC[C@H](N2CCc3ccccc3C2)[C@@H](O)C1 (single isomer, unassigned) [Example 117]
[1]; [5]
  EC50: 1.8 nM
[2]
  EC50: 3.3 nM

## Cc1c(Br)cnc2nc(C(=O)N3CC[C@H](N4CCc5ccccc5C4)[C@@H](O)C3)cn12 [Example 66, (6-bromo-5-methylimidazo[1,2-a]pyrimidin-2-yl)((3S,4S)-4-(3,4-dihydroisoquinolin-2(1H)-yl)-3-hydroxypiperidin-1-yl)methanone]
[1]; [3]
  EC50: 5.2 nM
[1]; [4]
  EC50: 861 nM
[2]
  EC50: 1810 nM

## Cn1nccc1-c1cnc2nc(C(=O)N3CC[C@H](N4CCc5ccccc5C4)[C@@H](O)C3)cn2c1 [Example 57, [(3S,4S)-4-(3,4-dihydroisoquinolin-2(1H)-yl)-3-hydroxypiperidin-1-yl][6-(1-methyl-1H-pyrazol-5-yl)imidazo[1,2-a]pyrimidin-2-yl]methanone]
[1]; [5]
  EC50: 1.1 nM
[2]
  EC50: 8.7 nM

## O=C(c1ccnc(C(F)F)c1)N1CC[C@H](N2CCc3ccccc3C2)[C@@H](O)C1 [Example 52, (2-(difluoromethyl)pyridin-4-yl)((3S,4S)-4-(3,4-dihydroisoquinolin-2(1H)-yl)-3-hydroxypiperidin-1-yl)methanone]
[1]; [5]
  EC50: 580 nM
[2]
  EC50: > 10000 nM

## O=C(c1cc(NC2CC3CCC(C2)N3)ncc1F)N1CC[C@H](N2CCc3ccccc3C2)[C@@H](O)C1 (stereo partly drawn) [Example 121, (2-((8-azabicyclo[3.2.1]octan-3-yl)amino)-5-fluoropyridin-4-yl)((3S,4S)-4-(3,4-dihydroisoquinolin-2(1H)-yl)-3-hydroxypiperidin-1-yl)methanone]
[1]; [3]
  EC50: 14 nM
[1]; [4]
  EC50: 2880 nM
[2]
  EC50: 1590 nM

## O=C(c1nn2cc(Br)cnc2c1Cl)N1CC[C@H](N2CCc3ccccc3C2)[C@@H](O)C1 [Example 133, (6-bromo-3-chloropyrazolo[1,5-a]pyrimidin-2-yl)[(3S,4S)-4-(3,4-dihydroisoquinolin-2(1H)-yl)-3-hydroxypiperidin-1-yl]methanone]
[1]; [3]
  EC50: 3.2 nM
[1]; [4]
  EC50: 569 nM
[2]
  EC50: 140 nM

## COC(C)c1cc(Br)cn2cc(C(=O)N3CC[C@H](N4CCc5ccccc5C4)[C@@H](O)C3)nc12 (single isomer, unassigned) [Example 68, (6-bromo-8-((R or S)-1-methoxyethyl)imidazo[1,2-a]pyridin-2-yl)((3S,4S)-4-(3,4-dihydroisoquinolin-2(1H)-yl)-3-hydroxypiperidin-1-yl)methanone]
[1]; [5]
  EC50: 0.4 nM
[2]
  EC50: 2.2 nM

## O=C(c1ccc2c(O)c(C3CC3)cnc2c1)N1CC[C@H](N2CCc3ccccc3C2)[C@@H](O)C1 [Example 63, (3-cyclopropyl-4-hydroxyquinolin-7-yl)((3S,4S)-4-(3,4-dihydroisoquinolin-2(1H)-yl)-3-hydroxypiperidin-1-yl)methanone]
[1]; [3]
  EC50: 0.7 nM
[1]; [4]
  EC50: 3310 nM
[2]
  EC50: 140 nM

## N#CC1(c2ccc3nc(C(=O)N4CC[C@H](N5CCc6ccccc6C5)[C@@H](O)C4)cn3c2)CC1 [Example 125, 1-(2-((3S,4S)-4-(3,4-dihydroisoquinolin-2(1H)-yl)-3-hydroxypiperidine-1-carbonyl)imidazo[1,2-a]pyridin-6-yl)cyclopropane-1-carbonitrile]
[1]; [3]
  EC50: ~58 nM
[1]; [4]
  EC50: 13700 nM
[2]
  EC50: 1750 nM

## CC(C)c1nc2nc(C(=O)N3CC[C@H](N4CCc5ccccc5C4)[C@@H](O)C3)cn2cc1Br [Example 79, [6-bromo-7-(propan-2-yl)imidazo[1,2-a]pyrimidin-2-yl][(3S,4S)-4-(3,4-dihydroisoquinolin-2(1H)-yl)-3-hydroxypiperidin-1-yl]methanone]
[1]; [5]
  EC50: 0.7 nM
[2]
  EC50: 4.9 nM
